Results taken from article PMC10234496 (Organic letters, 2022).

Assays:
[1] = test system: A. baumannii; test: MIC against A. baumannii; type: cell-based, Acinetobacter baumannii; conditions: Gram-negative; measured in duplicate
[2] = test system: S. aureus; test: MIC against S. aureus; type: cell-based, Staphylococcus aureus; conditions: Gram-positive; measured in duplicate
[3] = test system: E. cloacae; test: MIC against E. cloacae; type: cell-based; conditions: Gram-negative; measured in duplicate
[4] = test system: K. pneumoniae; test: MIC against K. pneumoniae; type: cell-based, Klebsiella pneumoniae; conditions: Gram-negative; measured in duplicate
[5] = test system: E. coli; test: MIC against E. coli; type: cell-based, Escherichia coli; conditions: Gram-negative; measured in duplicate
[6] = test system: P. aeruginosa; test: MIC against P. aeruginosa; type: cell-based, Pseudomonas aeruginosa; conditions: Gram-negative; measured in duplicate
[7] = test system: E. faecium; test: MIC against E. faecium; type: cell-based, Enterococcus faecium; conditions: Gram-positive; measured in duplicate
[8] = test system: VRE clinical isolates; test: MIC against VRE clinical isolates; type: cell-based, Vancomycin-resistant Enterococcus; conditions: Figure 3, Table S9
[9] = test system: MDR S. aureus strains; test: MIC against MDR S. aureus strains; type: cell-based; conditions: Figure 3, Table S9

Substance	MIC A. baumannii [1] [µg/mL]	MIC S. aureus [2] [µg/mL]	MIC E. cloacae [3] [µg/mL]	MIC K. pneumoniae [4] [µg/mL]	MIC E. coli [5] [µg/mL]	MIC P. aeruginosa [6] [µg/mL]	MIC E. faecium [7] [µg/mL]	MIC against VRE clinical isolates [8] [µg/mL]	MIC against MDR S. aureus strains [9] [µg/mL]
Laterocidine	0.5	>128	1	2	0.5	2	>128		
Paenibacterin	8	16	4	8	4	8	8		
Tridecaptin A	4	128	2	1	1	64	64	128	128
